Test results reported in ChEMBL document CHEMBL4177696, “Identification of a diverse synthetic abietane diterpenoid library and insight into the structure-activity relationships for antibacterial activity” (Bioorg Med Chem Lett, 2017).
Values after ≈ are worked out from the molar mass of the structure shown.

Columns and labels:
Staphylococcus aureus = assay: Antibacterial activity against Staphylococcus aureus measured after 24 hrs; format: functional
Bacillus subtilis = assay: Antibacterial activity against Bacillus subtilis measured after 24 hrs; format: functional
Escherichia coli = assay: Antibacterial activity against Escherichia coli measured after 24 hrs; format: functional
Pseudomonas fluorescens = assay: Antibacterial activity against Pseudomonas fluorescens measured after 24 hrs; format: functional
[1] = Cytotoxicity against HFF measured after 72 hrs by MTT assay; format: cell-based; settings: human, HFF cells
[2] = Cytotoxicity against human HL-7702 cells measured after 72 hrs by MTT assay; format: cell-based; settings: HL-7702 (L02) cells

SMILES | MIC (Staphylococcus aureus) [µg/mL] | MIC (Bacillus subtilis) [µg/mL] | MIC (Escherichia coli) [µg/mL] | MIC (Pseudomonas fluorescens) [µg/mL] | CC50 at 72 h [1] [µg/mL] | CC50 at 72 h [2] [µg/mL]
COc1cccc2c1CC[C@H]1[C@H]3COC(=O)[C@@]3(O)C(=O)C[C@]21C | 1.6 (≈ 5.06 µM) | 0.8 (≈ 2.53 µM) | 1.6 (≈ 5.06 µM) | 1.6 (≈ 5.06 µM) | > 50 | 47.5 (≈ 150 µM)
C=C1C(=O)CC[C@]2(C)c3cccc(OC)c3CC[C@@H]12 | 3.1 (≈ 12.1 µM) | 6.3 (≈ 24.6 µM) | 6.3 (≈ 24.6 µM) | 3.1 (≈ 12.1 µM) | 9.1 (≈ 35.5 µM) | 9.3 (≈ 36.3 µM)
COc1cccc2c1CC[C@H]1[C@H]3COC(=O)C3=CC[C@]21C | 6.3 (≈ 22.2 µM) | 6.3 (≈ 22.2 µM) | 3.1 (≈ 10.9 µM) | 6.3 (≈ 22.2 µM) | 25.2 (≈ 88.6 µM) | 9.9 (≈ 34.8 µM)
COC(=O)[C@]1(C)CCC[C@]2(C)c3ccc(C(C)C)c(NC(=O)Cn4cc(-c5cccnc5)nn4)c3CC[C@@H]12 | 3.1 (≈ 6.01 µM) | 12.5 (≈ 24.2 µM) | 3.1 (≈ 6.01 µM) | 6.3 (≈ 12.2 µM) | 48.2 (≈ 93.5 µM) | 47.9 (≈ 92.9 µM)
COC(=O)[C@]1(C)CCC[C@]2(C)c3ccc(C(C)C)c(NC(=O)Cn4cc(-c5ccncc5)nn4)c3CC[C@@H]12 | 0.8 (≈ 1.55 µM) | 6.3 (≈ 12.2 µM) | 25 (≈ 48.5 µM) | 3.1 (≈ 6.01 µM) | – | –
COC(=O)[C@]1(C)CCC[C@]2(C)c3ccc(C(C)C)c(NC(=O)Cn4cc(-c5cccc(NC(C)=O)c5)nn4)c3CC[C@@H]12 | 6.3 (≈ 11 µM) | 6.3 (≈ 11 µM) | 3.1 (≈ 5.42 µM) | 6.3 (≈ 11 µM) | 12.2 (≈ 21.3 µM) | 9.7 (≈ 17 µM)
COC(=O)[C@]1(C)CCC[C@]2(C)c3ccc(C(C)C)c(NC(=O)Cn4cc(-c5cccs5)nn4)c3CC[C@@H]12 | 12.5 (≈ 24 µM) | 6.3 (≈ 12.1 µM) | 50 (≈ 96 µM) | 6.3 (≈ 12.1 µM) | – | –
COC(=O)[C@]1(C)CCC[C@]2(C)c3ccc(C(C)C)c(NC(=O)Cn4cc(-c5cncnc5)nn4)c3CC[C@@H]12 | 1.6 (≈ 3.1 µM) | 3.1 (≈ 6 µM) | 1.6 (≈ 3.1 µM) | 1.6 (≈ 3.1 µM) | 41.8 (≈ 80.9 µM) | 31.7 (≈ 61.4 µM)
CCOCOC[C@]12CCC(=C(SC)SC)C(=O)[C@@H]1CCc1c2ccc(C(C)C)c1OC | 6.3 (≈ 13.6 µM) | 0.8 (≈ 1.72 µM) | 6.3 (≈ 13.6 µM) | 1.6 (≈ 3.44 µM) | 11.4 (≈ 24.5 µM) | 13.2 (≈ 28.4 µM)
COC(=O)[C@]1(C)CCC[C@]2(C)c3ccc(C(C)C)c(NC(=O)Cn4cc(-c5nc(Cl)nc(Cl)n5)nn4)c3CC[C@@H]12 | 12.5 (≈ 21.3 µM) | 25 (≈ 42.6 µM) | 6.3 (≈ 10.7 µM) | 12.5 (≈ 21.3 µM) | – | –
CCOCO[C@]12CCC[C@]3(CO1)c1ccc(C(C)C)c(OC)c1CC[C@@H]23 | 3.1 (≈ 8.6 µM) | 6.3 (≈ 17.5 µM) | 3.1 (≈ 8.6 µM) | 3.1 (≈ 8.6 µM) | 8.2 (≈ 22.7 µM) | 5.4 (≈ 15 µM)
COc1c(C(C)C)ccc2c1CC=C1C3=C(CCC12C)C(=O)OC3 (single isomer, unassigned) | 75 (≈ 231 µM) | 100 (≈ 308 µM) | 75 (≈ 231 µM) | 100 (≈ 308 µM) | – | –
COc1c(C(C)C)ccc2c1[C@H](O)C=C1C3=C(CCC12C)C(=O)OC3 (single isomer, unassigned) | 3.1 (≈ 9.11 µM) | 6.3 (≈ 18.5 µM) | 3.1 (≈ 9.11 µM) | 3.1 (≈ 9.11 µM) | 9.2 (≈ 27 µM) | 10.3 (≈ 30.3 µM)
CC(C)C1=CC2=CC[C@@H]3[C@](C)(CCC[C@@]3(C)C(=O)O)[C@H]2CC1 [ABIETIC ACID] | 25 (≈ 82.7 µM) | 50 (≈ 165 µM) | 50 (≈ 165 µM) | 25 (≈ 82.7 µM) | – | –
NCC[C@H](O)C(=O)N[C@@H]1C[C@H](N)[C@@H](O[C@H]2O[C@H](CN)[C@@H](O)[C@H](O)[C@H]2O)[C@H](O)[C@H]1O[C@H]1O[C@H](CO)[C@@H](O)[C@H](N)[C@H]1O.O=S(=O)(O)O.O=S(=O)(O)O [AMIKACIN SULFATE] | 0.8 | 0.8 | 1.6 | 0.8 | – | –
CC(C)c1ccc2c(c1)CC[C@H]1[C@](C)(C(=O)O)CCC[C@]21C [DEHYDROABIETIC ACID] | 25 (≈ 83.2 µM) | 50 (≈ 166 µM) | 75 (≈ 250 µM) | 50 (≈ 166 µM) | – | –
COC(=O)[C@]1(C)CCC[C@@]2(C)[C@H]1CC=C1C=C(C(C)C)CC[C@@H]12 [METHYL ABIETATE] | 50 (≈ 158 µM) | 75 (≈ 237 µM) | 75 (≈ 237 µM) | 50 (≈ 158 µM) | – | –
COC(=O)[C@]1(C)CCC[C@]2(C)c3ccc(C(C)C)cc3CC[C@@H]12 [METHYL DEHYDROABIETATE] | 75 (≈ 238 µM) | 100 (≈ 318 µM) | 100 (≈ 318 µM) | 100 (≈ 318 µM) | – | –
CCn1cc(C(=O)O)c(=O)c2cc(F)c(N3CCNCC3)cc21 [NORFLOXACIN] | 1.6 (≈ 5.01 µM) | 1.6 (≈ 5.01 µM) | 3.1 (≈ 9.71 µM) | 1.6 (≈ 5.01 µM) | – | –
CC(C)c1ccc2c(c1O)CC[C@H]1C3=C(CC[C@]21C)C(=O)OC3 [TRIPTOPHENOLIDE] | 75 (≈ 240 µM) | 50 (≈ 160 µM) | 100 (≈ 320 µM) | 75 (≈ 240 µM) | – | –
